The structures appear in SMILES notation.

This note sets out measurements from patent US20090221647A1, “N-(2-THIAZOLYL)-AMIDE DERIVATIVES AS GSK-3 INHIBITORS” (NOSCIRA, S.A., priority 2006, published 2009).

The test system of data set [1] is phosphorylated human Tau [pS396] in SHSY5Y cells. As to the kind of experiment: Inhibition of tau phosphorylation in SHSY5Y cells (Tau [pS396] sandwich ELISA). It counts as cell-based. The arrangement: key: “NEG” means no tau phosphorylation inhibition was detected at the referred concentration of compound (I); “POS” means that at the referred concentration tau phosphorylation inhibition was detected. Particulars: 18 h. The protocol:
Human neuroblastoma SHSY5Y cells were seeded in the presence of Minimum Essential Medium/Nutrient Mixture F-12. One day later, cells are treated with samples for 18 h at 37° C. After treatment, cultures are washed with phosphate-buffered saline and lysed for 30 min at 4° C. in extraction buffer (10 mM Tris-HCl, pH 7.4, 100 mM NaCl, 1 mM EDTA, 2 mM Na3VO4, 1% Triton X-100, 10% glycerol, 0.1% SDS, 0.5% Sodium deoxycholate, 1 mM PMSF and a protease inhibitor cocktail (Roche, Cat 1 697 498)).
The quantitative determination of phosphorylated human Tau is made taking aliquots of the cell lysate and using a phosphorylation-specific antibody against Tau [pS396] in a sandwich ELISA (Biosource, Cat KHB7031). Tau phosphorylation is estimated by measuring the absorbance at 450 nm in a microtiter plate reader (Cultek, Anthos 2010).
The effect of the synthesized compound according to example 1 and that of another 6 compounds of formula (I) is determined at different final concentrations, namely 50, 100 and 200 μM. Not all the compounds of formula (I) were tested at all the concentrations. The results are indicated in Table 1 (see below) as “NEG” and “POS”, respectively meaning “negative” and “positive”; “NEG” means no tau phosphorylation inhibition was detected at the referred concentration of compound (I); “POS” means that at the referred concentration tau phosphorylation inhibition was detected.
Background: ELISA stands for enzyme-linked immunosorbent assay.

The target in data set [2] is T1, Recombinant human glycogen synthase kinase 3β (Homo sapiens, UniProt P49841).
T1 construct: purchased Upstate 14-306
As to the kind of experiment: GSK-3β inhibition (radiometric 33P-ATP, GS-2 peptide substrate). It counts as biochemical. Conditions: remaining GSK-3 activity. The procedure:
This assay is based on the protocol detailed by Upstate Cat. 14-306, making some slight modifications.
Recombinant human glycogen synthase kinase 3β is assayed in MOPS 11 mM pH7.4, EDTA 0.2 mM, EGTA 1.25 mM, MgCl2 26.25 mM and sodium orthovanadate 0.25 mM in the presence of 62.5 μM of Phospho-Glycogen Synthase Peptide-2 (GS-2) (TOCRIS, Cat. 1352), 0.5 μCi γ-^33P-ATP and unlabelled ATP (Sigma, A-9187) at a final concentration of 12.5 μM. After incubation for 30 minutes at 30° C., aliquots are spotted onto P81 phosphocellulose papers. Filters are washed four times for at least 10 minutes each with 1% phosphoric acid and counted with scintillation cocktail in a scintillation counter (PerkinElmer, Microbeta 1450). The activity of GSK-3 is tested at concentrations of 25 and 50 μM, in the presence of the compound synthesized according to example 1 and in the presence of another 6 compounds of formula (I). The results obtained are indicated in Table I (see below), in the form of percentage of GSK-3 activity.

A further data set concerns SH-SY5Y cells. As to the kind of experiment: Cell survival by LDH release in SH-SY5Y cells. It counts as cell-based. The procedure: In addition to tau phosphorylation assays, quantification of cell death due to potential toxicity of compounds 1 and 3 described above is made by measuring LDH release (Roche, Cat 1 644 793). For the quantitative determination of cell survival, aliquots of the cell lysate are incubated with an equal volume of reaction mixture at room temperature for 20-30 min. The measure of absorbance is made in a microtiter plate reader with 490-492 nm filter (Cultek, Anthos 2010).
For compounds 1 and 3, the cell survival was measured at 24 hours treatment (see Table 2), and for compound 2 was measured at 18 hours treatment (see Table 3), in SH-SY5Y cells. It is generally considered that a compound is considered toxic if less than 80% of the cells survive after treatment with a compound.

T1 sequence (P49841 whole entry): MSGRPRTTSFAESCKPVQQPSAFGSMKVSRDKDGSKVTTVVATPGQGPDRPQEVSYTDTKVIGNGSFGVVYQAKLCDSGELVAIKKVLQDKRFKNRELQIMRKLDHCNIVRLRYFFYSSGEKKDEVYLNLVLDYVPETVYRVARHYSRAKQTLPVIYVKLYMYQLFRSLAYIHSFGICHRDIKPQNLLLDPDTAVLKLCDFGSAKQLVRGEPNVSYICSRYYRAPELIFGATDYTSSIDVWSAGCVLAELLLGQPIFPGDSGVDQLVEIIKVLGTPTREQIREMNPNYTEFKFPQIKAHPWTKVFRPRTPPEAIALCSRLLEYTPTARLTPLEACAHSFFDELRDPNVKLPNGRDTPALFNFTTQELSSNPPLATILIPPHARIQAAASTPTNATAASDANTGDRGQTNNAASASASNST

As to `O=C(Cc1cccnc1)Nc1ncc([N+](=O)[O-])s1` [Compound 1, N-(5-Nitro-thiazol-2-yl)-2-pyridin-3-yl-acetamide], the “Tau phosphorylation inhibition in cells” value in data set [1] (50 μM compound) and in data set [1] (100 μM compound) was “POS” each time. Besides, the results for the “% GSK-3 Activity” value in data set [2] (25 μM compound) and in data set [2] (50 μM compound) were 5.21% and 2.78%, respectively. The “% of cell viability” value in the data set with SH-SY5Y cells (50 μM, 24 hours treatment) is given as 94.1 ± 1.8%; with SH-SY5Y cells (100 μM, 24 hours treatment), 86.5 ± 4.7%.

Turning to `O=C(CCc1cccnc1)Nc1ncc([N+](=O)[O-])s1` [Compound 2], the “Tau phosphorylation inhibition in cells” value in data set [1] (50 μM compound) and in data set [1] (100 μM compound) was “POS” in each case. In addition, the “% GSK-3 Activity” value in data set [2] (25 μM compound) is reported as 8.3%; in data set [2] (50 μM compound) it was 5.36%. Further, the “% of cell viability” value in the data set with SH-SY5Y cells (50 μM, 18 hours treatment) is recorded as 95.7 ± 4.2%; in the data set with SH-SY5Y cells (100 μM, 18 hours treatment), 93.7 ± 7.1%.

For `O=C(Cc1ccccn1)Nc1ncc([N+](=O)[O-])s1` [Compound 3], the “Tau phosphorylation inhibition in cells” value in data set [1] (50 μM compound) is recorded as “NEG”; in data set [1] (100 μM compound), “POS”. Besides, the figures for the “% GSK-3 Activity” value in data set [2] (25 μM compound) and in data set [2] (50 μM compound) were 9.49% and 4.1%, respectively. Further, the “% of cell viability” value in the data set on SH-SY5Y cells (50 μM, 24 hours treatment) stood at 87 ± 6.0%; in the data set with SH-SY5Y cells (100 μM, 24 hours treatment) it was 85.4 ± 2.7%.

Regarding `O=C(Cc1cccnc1)Nc1ncc(Cl)s1` [Compound 4], the “Tau phosphorylation inhibition in cells” value in data set [1] (50 μM compound) was “NEG”; in data set [1] (100 μM compound) it was “POS”. The “% GSK-3 Activity” value in data set [2] (25 μM compound) turned out to be 5.6%; in data set [2] (50 μM compound), 13.8%.

For `O=C(Nc1ncc([N+](=O)[O-])s1)c1ccccn1` [Compound 5], the “% GSK-3 Activity” value in data set [2] (25 μM compound) amounted to 76.72%; in data set [2] (50 μM compound), 43.78%.

For `O=C(Cc1cccnc1)Nc1nccs1` [Compound 6], the “% GSK-3 Activity” value in data set [2] (25 μM compound) is recorded as 22.29%; in data set [2] (50 μM compound) it was 50.90%.

`O=C(Cc1ccccc1)Nc1ncc([N+](=O)[O-])s1` [Compound 7]: the “Tau phosphorylation inhibition in cells” value in data set [1] (50 μM compound) and in data set [1] (100 μM compound) was “POS” throughout. Moreover, the results for the “% GSK-3 Activity” value in data set [2] (25 μM compound) and in data set [2] (50 μM compound) were 13.73% and 8.05%, respectively.
